# Data taken from patent US8822503B2, “2-pyridone compounds” (Taisho Pharmaceutical Co., Ltd, priority 2009, dated 2014).
# Target: T1, human liver GK (Homo sapiens, UniProt P35557)
# T1 construct: GST (glutathione S-transferase) (N); made in house; host or cells: E. coli
# T1 sequence (P35557 1-466 isoform P35557-2): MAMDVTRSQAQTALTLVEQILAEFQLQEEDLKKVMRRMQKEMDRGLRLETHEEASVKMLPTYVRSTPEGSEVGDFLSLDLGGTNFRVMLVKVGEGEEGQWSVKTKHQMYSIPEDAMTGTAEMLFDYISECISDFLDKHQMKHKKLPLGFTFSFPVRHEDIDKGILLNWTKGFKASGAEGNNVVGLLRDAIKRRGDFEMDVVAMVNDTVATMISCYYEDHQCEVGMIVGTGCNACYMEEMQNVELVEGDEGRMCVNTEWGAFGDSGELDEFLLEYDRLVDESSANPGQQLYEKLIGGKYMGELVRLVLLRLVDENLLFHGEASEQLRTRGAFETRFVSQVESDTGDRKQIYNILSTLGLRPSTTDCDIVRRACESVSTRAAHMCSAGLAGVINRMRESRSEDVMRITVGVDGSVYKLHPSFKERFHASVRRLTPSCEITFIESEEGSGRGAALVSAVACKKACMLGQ
# Test: GK activation test
# Type: biochemical
# Settings: test compound concentration needed to activate 50% of maximum activation ability; 4 mM 14C-labeled glucose, 2 mM ATP, room temperature, 20 minutes
# Outline: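 GST-tagged human liver GK from E. coli (0.24 μg/well) with 4 mM 14C-glucose, 2 mM ATP in Hepes-KOH pH 7.1, KCl, MgCl2, DTT, 1% DMSO, 20 min room temperature. Labeled glucose 6-phosphate captured on anion resin, eluted and counted. EC50 = concentration giving half of maximal activation.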
row,EC50 [nM],SMILES
1,10 to 500,"Cc1ccc(/C(=C/C2CCCC2)c2ccc(SCCCO)c(Cl)c2)[nH]c1=O [Example 1-22, 6-[(E)-1-{3-Chloro-4-[(3-hydroxypropyl)sulfanyl]phenyl}-2-cyclopentylethenyl]-3-methylpyridin-2(1H)-one]"
2,10 to 500,"COc1cc(F)c(C(C[C@H]2CCC(=O)N2)c2ccc(C3CC3)c(=O)[nH]2)cc1Cl (single isomer, unassigned) [Example 4-346]"
3,500 to 3000,"COc1ccc(C(C[C@H]2CCC(=O)N2)c2ccc(C(C)(C)C)cc2)[nH]c1=O (single isomer, unassigned) [Example 4-244]"
4,500 to 3000,"CCc1ccc(/C(=C\[C@H]2CCC(=O)N2)c2ccc(Cl)c(=O)[nH]2)cc1 [Example 4-14, 3-Chloro-6-{(E)-1-(4-ethylphenyl)-2-[(2R)-5-oxopyrrolidin-2-yl]ethenyl}pyridin-2(1H)-one]"
5,500 to 3000,"CC(C)(C)c1ccc(/C(=C\CCN2C(=O)CCC2=O)c2ccc(Cl)c(=O)[nH]2)cc1 [Example 6-13, 1-[(3E)-4-(4-tert-Butylphenyl)-4-(5-chloro-6-oxo-1,6-dihydropyridin-2-yl)but-3-en-1-yl]pyrrolidine-2,5-dione]"
6,3000 to 10000,"CCCc1ccc(C(C[C@H]2CCC(=O)N2)c2ccc(C(F)(F)F)cc2)[nH]c1=O (single isomer, unassigned) [Example 4-243]"
7,10 to 500,"O=C1CC[C@H](CC(c2ccc(OC3CC3)c(Cl)c2)c2ccc(C3CC3)c(=O)[nH]2)N1 (single isomer, unassigned) [Example 4-344]"
8,10 to 500,"Cc1ccc(C(C[C@H]2CCC(=O)N2)c2ccc(C3CC3)c(=O)[nH]2)cc1Cl (single isomer, unassigned) [Example 4-215]"
9,10 to 500,"CC(C)(C)c1ccc(/C(=C\[C@H]2CCC(=O)N2)c2ccc(CCCCO)c(=O)[nH]2)cc1 [Example 4-190, 6-{(E)-1-(4-tert-Butylphenyl)-2-[(2R)-5-oxopyrrolidin-2-yl]ethenyl}-3-(4-hydroxybutyl)pyridin-2(1H)-one]"
10,10 to 500,"CSc1ccc(/C(=C\C2CCCC2)c2ccc(C)c(=O)[nH]2)cc1Cl [Example 1-18, 6-{(E)-1-[3-Chloro-4-(methylsulfanyl)phenyl]-2-cyclopentylethenyl}-3-methylpyridin-2(1H)-one]"
11,10 to 500,"CC(C)(C)c1ccc(/C(=C\[C@H]2CCC(=O)N2)c2ccc(Oc3ccccc3)c(=O)[nH]2)cc1 [Example 4-185, 6-{(E)-1-(4-tert-Butylphenyl)-2-[(2R)-5-oxopyrrolidin-2-yl]ethenyl}-3-phenoxypyridin-2(1H)-one]"
12,10 to 500,"CCCOc1ccc(/C(=C\[C@H]2CCC(=O)N2)c2ccc(C3CC3)c(=O)[nH]2)cc1 [Example 4-279, 3-Cyclopropyl-6-[(E)-2-[(2R)-5-oxopyrrolidin-2-yl]-1-(4-propoxyphenyl)ethenyl]pyridin-2(1H)-one]"
13,10 to 500,"Cc1ccc(/C(=C\[C@H]2CCC(=O)N2)c2ccc(C3CC3)c(=O)[nH]2)cc1Cl [Example 4-106, 6-{(E)-1-(3-Chloro-4-methylphenyl)-2-[(2R)-5-oxopyrrolidin-2-yl]ethenyl}-3-cyclopropylpyridin-2(1H)-one]"
14,500 to 3000,"CCOc1ccc(C(C[C@H]2CCC(=O)N2)c2ccc(C3CC3)c(=O)[nH]2)cc1F (single isomer, unassigned) [Example 4-354]"
15,10 to 500,"CC(C)(C)c1ccc(/C(=C\[C@H]2CCC(=O)N2)c2ccc(-c3ccccc3)c(=O)[nH]2)cc1 [Example 4-178, 6-{(E)-1-(4-tert-Butylphenyl)-2-[(2R)-5-oxopyrrolidin-2-yl]ethenyl}-3-phenylpyridin-2(1H)-one]"
16,500 to 3000,"O=C1CC[C@H](/C=C(\c2ccc(C(F)(F)F)cc2)c2ccc(C(F)(F)F)c(=O)[nH]2)N1 [Example 4-259, 6-{(E)-2-[(2R)-5-Oxopyrrolidin-2-yl]-1-[4-(trifluoromethyl)phenyl]ethenyl}-3-(trifluoromethyl)pyridin-2(1H)-one]"

row,EC50 [nM],SMILES
1,10 to 500,"O=C1CC[C@H](CC(c2ccc(S(=O)(=O)C3CC3)c(Cl)c2)c2ccc(C3CC3)c(=O)[nH]2)N1 (single isomer, unassigned) [Example 4-342]"
2,10 to 500,"COc1ccc(C(C[C@H]2CCC(=O)N2)c2ccc(C3CC3)c(=O)[nH]2)cc1Cl (single isomer, unassigned) [Example 4-326]"
3,10 to 500,"CCS(=O)(=O)c1ccc(/C(=C\C2CCCC2)c2ccc(C)c(=O)[nH]2)cc1 [Example 1-10, 6-{(E)-2-Cyclopentyl-1-[4-(ethylsulfonyl)phenyl]ethenyl}-3-methylpyridin-2(1H)-one]"
4,500 to 3000,"Cc1ccc(C(CC2CCCC2)c2ccc(S(C)(=O)=O)cc2)[nH]c1=O (stereo not drawn) [Example 2-2, 6-{2-Cyclopentyl-1-[4-(methylsulfonyl)phenyl]ethyl}-3-methylpyridin-2(1H)-one]"
5,10 to 500,"Cc1ccc(/C(=C/[C@H]2CCC(=O)C2)c2ccc(SC3CC3)cc2)[nH]c1=O [Example 1-60, 6-{(E)-1-[4-(Cyclopropylsulfanyl)phenyl]-2-[(1S)-3-oxocyclopentyl]ethenyl}-3-methylpyridin-2(1H)-one]"
6,500 to 3000,"CCCOc1ccc(/C(=C/[C@H]2CCC(=O)N2)c2ccc(C(C)(C)C)cc2)[nH]c1=O [Example 4-167, 6-{(E)-1-(4-tert-Butylphenyl)-2-[(2R)-5-oxopyrrolidin-2-yl]ethenyl}-3-propoxypyridin-2(1H)-one]"
7,3000 to 10000,"CCc1ccc(C(C[C@H]2CCC(=O)N2)c2ccc(C3CC3)c(=O)[nH]2)cc1 (single isomer, unassigned) [Example 4-303]"
8,500 to 3000,"CCN(CC)CCCOc1ccc(/C(=C\[C@H]2CCC(=O)N2)c2ccc(C3CC3)c(=O)[nH]2)cc1 [Example 4-65, 3-Cyclopropyl-6-{(E)-1-{4-[3-(diethylamino)propoxy]phenyl}-2-[(2R)-5-oxopyrrolidin-2-yl]ethenyl}pyridin-2(1H)-one]"
9,10 to 500,"CC(C)(C)c1ccc(C(C[C@H]2CCN(C(=O)C3CC3)C2)c2ccc(Cl)c(=O)[nH]2)cc1 (single isomer, unassigned) [Example 4-96]"
10,500 to 3000,"CC(C)(C)c1ccc(/C(=C\Cn2cnccc2=O)c2ccc(Cl)c(=O)[nH]2)cc1 [Example 6-34, 3-[(2E)-3-(4-tert-Butylphenyl)-3-(5-chloro-6-oxo-1,6-dihydropyridin-2-yl)prop-2-en-1-yl]pyrimidin-4(3H)-one]"
11,500 to 3000,"CCCc1ccc(/C(=C\[C@H]2CCC(=O)N2)c2ccc(Cl)c(=O)[nH]2)cc1 [Example 4-16, 3-Chloro-6-[(E)-2-[(2R)-5-oxopyrrolidin-2-yl]-1-(4-propylphenyl)ethenyl]pyridin-2(1H)-one]"
12,10 to 500,"COc1ccc(/C(=C\[C@H]2CCC(=O)N2)c2ccc(C3CC3)c(=O)[nH]2)cc1C(F)(F)F [Example 4-134, 3-Cyclopropyl-6-{(E)-1-[4-methoxy-3-(trifluoromethyl)phenyl]-2-[(2R)-5-oxopyrrolidin-2-yl]ethenyl}pyridin-2(1H)-one]"
13,500 to 3000,"CC(C)(C)c1ccc(/C(=C\N2CCCC2=O)c2ccc(Cl)c(=O)[nH]2)cc1 [Example 6-14, 6-[(E)-1-(4-tert-Butylphenyl)-2-(2-oxopyrrolidin-1-yl)ethenyl]-3-chloropyridin-2(1H)-one]"
14,10 to 500,"O=C1CC[C@H](/C=C(\c2ccc(Cl)c(F)c2)c2ccc(C3CC3)c(=O)[nH]2)N1 [Example 4-111, 6-{(E)-1-(4-Chloro-3-fluorophenyl)-2-[(2R)-5-oxopyrrolidin-2-yl]ethenyl}-3-cyclopropylpyridin-2(1H)-one]"
15,3000 to 10000,"O=C1CC[C@H](CC(c2ccc(OC3CC3)c(Cl)c2)c2ccc(C3CC3)c(=O)[nH]2)N1 (single isomer, unassigned) [Example 4-345]"
16,10 to 500,"CSc1ccc(/C(=C\C2CCCC2)c2ccc(C)c(=O)[nH]2)cc1 [Example 1-7, 6-{(E)-2-Cyclopentyl-1-[4-(methylsulfanyl)phenyl]ethenyl}-3-methylpyridin-2(1H)-one]"

row,SMILES,EC50 [nM]
1,"O=C1CC[C@H](/C=C(\c2cccc(OCCCCO)c2)c2ccc(C3CC3)c(=O)[nH]2)N1 [Example 4-9, 3-Cyclopropyl-6-{(E)-1-[3-(4-hydroxybutoxy)phenyl]-2-[(2R)-5-oxopyrrolidin-2-yl]ethenyl}pyridin-2(1H)-one]",500 to 3000
2,"O=C1CC[C@H](/C=C(\c2ccc(OCCCCO)c(Cl)c2)c2ccc(Cl)c(=O)[nH]2)N1 [Example 4-38, 3-Chloro-6-{(E)-1-[3-chloro-4-(4-hydroxybutoxy)phenyl]-2-[(2R)-5-oxopyrrolidin-2-yl]ethenyl}pyridin-2(1H)-one]",10 to 500
3,"CCN(CC)CCCCOc1ccc(/C(=C\[C@H]2CCC(=O)N2)c2ccc(Cl)c(=O)[nH]2)cc1Cl [Example 4-63, 3-Chloro-6-{(E)-1-{3-chloro-4-[4-(diethylamino)butoxy]phenyl}-2-[(2R)-5-oxopyrrolidin-2-yl]ethenyl}pyridin-2(1H)-one]",500 to 3000
4,"O=C1CC[C@H](/C=C(\c2ccc(OCCCCO)c(Cl)c2)c2ccc(C3CC3)c(=O)[nH]2)N1 [Example 4-11, 6-{(E)-1-[3-Chloro-4-(4-hydroxybutoxy)phenyl]-2-[(2R)-5-oxopyrrolidin-2-yl]ethenyl}-3-cyclopropylpyridin-2(1H)-one]",10 to 500
